# Laboratory results reported in patent US8592451B2, “Reversible nondepolarizing neuromuscular blockade agents and methods for their use” (Cornell University, priority 2009, dated 2013).
# Assays:
# [1] = L-cysteine adduction kinetics in vitro (HPLC); assay type: physicochemical; settings: pH 7.4, 37° C.; for NMBA peak area / [NMBA] remaining / ln* = ln (([NMBA]t[L-cysteine]t=0)/([NMBA]t=0[L-cysteine]t)): gantacurium 200 μg/mL + L-cysteine
# Method: In a second experiment, to evaluate degradation in the presence of L-cysteine, buffered solutions (pH 7.4) of gantacurium, CW 002 or CW 011 were freshly prepared at 37° C. to give experimental concentrations of 1000 μg/mL (CW 002 and CW 011) and 200 μg/mL (gantacurium), after addition to and mixing with a 5% Molar excess of L-cysteine at time=0.
# The concentration of neuromuscular blocking agent/parent compound remaining at specified time points after mixing was determined by high performance liquid chromatography. The concentration of blocking agent at each time point was determined from a separately prepared reaction mixture, due to the rapid rate of L-cysteine adduction. The reaction rate constant for the second order reaction of each neuromuscular blockade agent (NMBA) with L-cysteine was derived by plotting the natural log of ([NMBA]t[L-cysteine]t=0/[NMBA]t=0[L-cysteine]t) vs. time.
# Concentrations selected were 200, 100 and 50 μg/ml which are approximately proportional to the relative potencies (ED 95) of gantacurium, CW 002 and CW 011 respectively. A degradation (adduction) pathway in the presence of L-cysteine for each of the three compounds was proposed.
# The reaction of L-cysteine with CW 002, CW 011 or gantacurium is first order in the case of both the neuromuscular blockade agent (NMBA) and L-cysteine, represented by the rate equation (1). d[Adduct]/dt=−d[NMBA]/dt=ka[NMBA][L-cysteine] (1)
# Calculation of the L-cysteine adduction half time requires experimental derivation of the reaction rate constant, ka, for each compound. The initial concentrations of NMBA and L-cysteine are unequal in the experiments conducted for this study, thus integration of equation 1 gives equation 2, where [NMBA]0 is the NMBA concentration at time equals 0 and [NMBA]t is the NMBA concentration at a time point, t.
# [formula] A plot of the ln(([NMBA]t [L-cysteine]0)/([NMBA]0 [L-cysteine]t)) versus time (ln* vs. t) gives a line, with slope equal to ka([NMBA]0−[L-cysteine]0). An adduction reaction half time can be calculated by solving for ka to be used in equation 3.
# NMBA standard solutions were prepared by a method similar to that used to prepare hydrolysis standards. The standards were prepared at 1000 μg/mL for CW 002 and CW 011 and 200 μg/mL for gantacurium.
# Solutions used for determination of NMBA concentration at the reported times for CW 002 and CW 011 were prepared as follows: L-cysteine hydrochloride monohydrate was charged to a volumetric flask in de-ionized water. A 5 mL aliquot of the L-cysteine solution (1.05 equiv. L-cysteine with respect to NMBA) was transferred by volumetric pipette to a flask held at 37.0±0.3° C. CW 002 or CW 011 was then charged to a separate 25 mL volumetric flask and diluted to volume with pH 7.4 phosphate buffer at 37.0° C. The NMBA solution was then immediately transferred to the flask containing L-cysteine to give an initial NMBA concentration of 1000 μg/mL. Solutions used for determination of gantacurium concentration versus time were prepared in a similar manner to give an initial concentration of 200 μg/mL. T=0 was defined as the time of addition of NMBA solution to L-cysteine solution. The times listed in the results table show the point of HPLC sample injection following mixing of L-cysteine and NMBA at time=0 (Table 1, below).
# Rate constants were calculated using equation (3) and the slope of the trend line derived from each data set. The strong linear correlation of the data within each set supports the use of second order kinetics for analysis of the cysteine adduction reactions.
# Reaction half times were calculated using equation 4 and the experimentally determined rate constants. The initial NMBA concentrations were chosen to reflect the relative potency observed in vivo.
# [2] = tested on: twitch of the extensor digitorum; test: Reversal of neuromuscular blockade by L-cysteine or neostigmine in anesthetized rhesus monkeys; assay type: in vivo, rhesus monkeys (Macaca mulatta)
# Method: A control dose of 0.15 mg/kg CW 002 was allowed to recover spontaneously to TOF 110-120%. A second dose was given 60 minutes later, followed one minute afterwards by either neostigmine (0.05 mg/kg+atropine 0.05 mg/kg) or L-cysteine (10, 20, 30 or 50 mg/kg). Total duration and 5-95% recovery intervals were compared during spontaneous recovery vs. antagonism by L-cysteine or reversal by neostigmine.
# This series of paired comparisons was designed to generate dose-response data comparing spontaneous recovery of high doses of CW 011 (from 4 to 64× ED95) versus immediate antagonism at +1 min by an optimal dose of L-cysteine (50 mg/kg), previously determined during studies of immediate antagonism of CW 002. This experiment was done to explore the limits of chemical antagonism by L-cysteine of these olefinic diester neuromuscular blocking drugs, using CW 011 as a typical example with an intermediate duration of action. Five groups of animals first received a control dose of CW 011 at 4, 8, 16, 32 or 64× ED 95 (0.1 to 1.6 mg/kg). Sixty minutes after spontaneous recovery of the control dose to TOF 110-120%, the same dose was repeated, followed 1 min later by L-cysteine (50 mg/kg). Total duration of action and 5-95% recovery interval were compared during spontaneous recovery and following antagonism by L-cysteine
# The reversal of neuromuscular blockade by cysteine (5-50 mg/kg i.v.) was studied. Reversal was tested as follows: full paralysis was induced by injection of a dose of approximately 2-6× ED 95 of the compound in question. After spontaneous recovery of this dose, a second identical dose was given 15-30 min later. Cysteine was then given at +1 min after injection of the neuromuscular blocking drug at a point where no twitch was apparent (“immediate reversal”) or at the beginning of recovery from neuromuscular blockade at two percent twitch height (“classical reversal”). Comparisons were made among compounds with respect to rapidity and ease of cysteine reversal, by comparing 5-95% recovery times, and total durations of action (injection to 95% twitch recovery). Spontaneous recovery was compared with cysteine-accelerated recovery. […]
# [3] = tested on: twitch of the extensor digitorum; test: Neuromuscular blocking potency and duration in anesthetized rhesus monkeys; assay type: in vivo, rhesus monkeys (Macaca mulatta)
# Method: Experiments were approved by the Institutional Animal Care and Use Committee of Weill Medical College of Cornell University (New York, N.Y.) and of Albany Medical College (Albany, N.Y.), where the studies were conducted. A colony of 10 adult male monkeys (Macaca mulatta) weighing 8-18 kg was studied at ˜6 week intervals. Animals were housed and cared for in accordance with the Guide for Care and Use of Laboratory Animals (National Research Council, Washington, D.C.). They were fed a standard Old World monkey diet, enriched with fruits and vegetables, and other dietary novelties and were followed throughout the study to verify normal health by physical examination, body weight, and clinical laboratory studies (Complete Blood Count, Blood Urea Nitrogen and creatinine, and liver function tests).
# On the day of each study, monkeys received ketamine (7-10 mg/kg i.m.) followed by tracheal intubation under topical anesthesia with 4% lidocaine. Ventilation was controlled at 10 mL/kg and 20 breaths/min with isoflurane (1.0-2.0%) and N2O/O2 (2:1 mixture). Ringers lactate was administered at ˜10 ml kg^−1 h^−1. Arterial pressure was monitored from a femoral, superficial tibial, or radial (22 gauge) cannula. Heart rate was measured by tachograph from the arterial pulse wave. Core temperature was kept at 36.5-38.0° C. by warming blankets. Electrocardiogram and pulse oximetry were monitored continuously.
# Needle electrodes (25 gauge) transmitting square-wave pulses of 0.2 msec duration at supramaximal voltage which were generated by a Grass S-88 stimulator (Grass Instruments, Quincy, Mass.) were placed at the peroneal nerve at the knee to elicit twitch responses of the extensor digitorum of the foot at 0.15 Hz. A small slip (10-20%) of the tendon was dissected free under sterile technique and tied to a Grass FT 10 force transducer (Grass Instruments, Quincy, Mass.) at a baseline tension of 50 gm. Train-of four stimulation (TOF, 2 Hz for 2 sec) was interposed at appropriate points, especially 1-2 min prior to NMBA dosing and following recovery of twitch to 95% of baseline, where TOF was subsequently evaluated every 1-2 min.
# Recordings of circulatory and neuromuscular data were made on a Grass 7B polygraph (Grass Instruments). A baseline period of 15-20 min was allowed for stabilization of recordings prior to dosing.^2
# Dose-response curves for twitch blockade by gantacurium, CW 002, CW 011, cisatracurium, CW002-Cys, NB 938-69, NB 1064-81, NB 802-17 (CW 001), NB 832-65, and NB 1163-79, structures of which are all shown above, were generated as follows. […] Successive doses were separated by at least three estimated half lives beyond complete recovery of the previous dose to TOF of 110-120%, which is normal for these monkeys. Only the first one or two doses yielding 5 to 99% blockade were included from any single experiment for computation of dose-response data.
# Comparative studies of spontaneous recovery versus antagonism/reversal were done at least 3 estimated half-lives following dose-response studies.
# ED 50 and ED 95 were computed from the regression of log dose vs. the logit of percentage blockade of twitch.
# CW002-Cys, the L-cysteine adduct of CW 002, was available in limited quantity and was administered in cumulative fashion to three animals to compare approximate potency and duration of effect versus its parent compound CW 002.
Compound,"Plot Slope (ln* vs. time) ([1]; L-cysteine adduction, data of Table 1)","NMBA peak area ([1]; Trial 1, 59 Sec) [mAU's]","[NMBA] remaining ([1]; Trial 1, 59 Sec) [µM]","ln* = ln (([NMBA]t[L-cysteine]t=0)/([NMBA]t=0[L-cysteine]t)) ([1]; Trial 1, 59 Sec)","NMBA peak area ([1]; Trial 2, 67 Sec) [mAU's]","[NMBA] remaining ([1]; Trial 2, 67 Sec) [µM]","ln* = ln (([NMBA]t[L-cysteine]t=0)/([NMBA]t=0[L-cysteine]t)) ([1]; Trial 2, 67 Sec)","NMBA peak area ([1]; Trial 3, 70 Sec) [mAU's]","[NMBA] remaining ([1]; Trial 3, 70 Sec) [µM]","ln* = ln (([NMBA]t[L-cysteine]t=0)/([NMBA]t=0[L-cysteine]t)) ([1]; Trial 3, 70 Sec)","NMBA peak area ([1]; Trial 4, 78 Sec) [mAU's]","[NMBA] remaining ([1]; Trial 4, 78 Sec) [µM]","ln* = ln (([NMBA]t[L-cysteine]t=0)/([NMBA]t=0[L-cysteine]t)) ([1]; Trial 4, 78 Sec)","ka, second order rate constant of L-cysteine adduction [1] [M⁻¹ s⁻¹]","half-life at 200 μg/ml ([1]; pH 7.4 buffered solution with L-cysteine, calculated at [NMBA]0 0.000188 M (200 μg/ml), read-out: L-cysteine adduction reaction half time t1/2) [s]",effect of neostigmine given immediately after the blocking drug ([2]; immediate reversal),"classical antagonism of neuromuscular blockade by neostigmine ([2]; neostigmine given at beginning of spontaneous recovery, e.g. at 2% twitch height)","Duration (± SD/SEM), from injection to recovery of twitch to 95% of baseline ([3]; administered dose 0.04 mg/kg, spontaneous recovery) [min]","ED 95 (± SD/SEM) ([3]; twitch blockade, monkeys under isoflurane, twitch at 0.15 Hz, calculated from dose-response curve) [mg/kg]"
"COc1cc2c(cc1OC)[C@H](c1cc(OC)c(OC)c(OC)c1)[N@@+](C)(CCCOC(=O)/C=C(\Cl)C(=O)OCCC[N@+]1(C)CCc3cc(OC)c(OC)cc3[C@H]1Cc1cc(OC)c(OC)c(OC)c1)CC2 [Gantacurium, reference compound]",−0.0145,476.7,33,−0.46,384.2,27,−0.56,344.2,24,−0.62,281.5,20,−0.73,529.6,12,ineffective,showed antagonism,–,–
COc1ccc(C[C@@H]2c3cc(OC)c(OC)cc3CC[N@@+]2(C)CCCOC(=O)CCC(=O)OCCC[N@+]2(C)CCc3cc(OC)c(OC)cc3[C@H]2Cc2ccc(OC)c(OC)c2)cc1OC [NB 1163-79],–,–,–,–,–,–,–,–,–,–,–,–,–,–,–,–,–,27.2 ± 2.6,0.032 ± 0.003
